#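 GI50 is the concentration that inhibits growth by half. TGI denotes the concentration required for complete inhibition of growth.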
# Assays:
# Experiment in all cases: NCI tumour cell line growth inhibition, 384-well format
# HT29 colon = tested on: HT29 colon
# IGROV1 ovarian = tested on: IGROV1 ovarian
# M14 melanoma = tested on: M14 melanoma
# MALME-3M melanoma = tested on: MALME-3M melanoma
# MDA-MB-231 breast = tested on: MDA-MB-231 breast
# MDA-MB-435 melanoma = tested on: MDA-MB-435 melanoma
# MDA-MB-468 breast = tested on: MDA-MB-468 breast
# MOLT-4 leukemia = tested on: MOLT-4 leukemia
# NCI-H460 NSCLC = tested on: NCI-H460 NSCLC
# NCI/ADR-RES ovarian = tested on: NCI/ADR-RES ovarian
# RPMI-8226 leukemia = tested on: RPMI-8226 leukemia
# SK-MEL-5 melanoma = tested on: SK-MEL-5 melanoma
# UACC-62 melanoma = tested on: UACC-62 melanoma
SMILES,GI50 (HT29 colon),TGI (HT29 colon),GI50 (IGROV1 ovarian),TGI (IGROV1 ovarian),GI50 (M14 melanoma),TGI (M14 melanoma),GI50 (MALME-3M melanoma),TGI (MALME-3M melanoma),GI50 (MDA-MB-231 breast),TGI (MDA-MB-231 breast),GI50 (MDA-MB-435 melanoma),TGI (MDA-MB-435 melanoma),GI50 (MDA-MB-468 breast),TGI (MDA-MB-468 breast),GI50 (MOLT-4 leukemia),TGI (MOLT-4 leukemia),GI50 (NCI-H460 NSCLC),TGI (NCI-H460 NSCLC),GI50 (NCI/ADR-RES ovarian),TGI (NCI/ADR-RES ovarian),further results
CS(=O)(=O)c1ccc(Oc2cc(F)cc(C#N)c2)c2c1[C@H](O)C(F)(F)C2,> 100 µM,> 100 µM,> 100 µM,> 100 µM,> 100 µM,> 100 µM,> 100 µM,> 100 µM,> 100 µM,> 100 µM,> 100 µM,> 100 µM,> 100 µM,> 100 µM,> 86.1 µM,> 100 µM,> 100 µM,> 100 µM,> 100 µM,> 100 µM,GI50 (RPMI-8226 leukemia): > 100 µM; TGI (RPMI-8226 leukemia): > 100 µM; GI50 (SK-MEL-5 melanoma): > 100 µM; TGI (SK-MEL-5 melanoma): > 100 µM; GI50 (UACC-62 melanoma): > 100 µM; TGI (UACC-62 melanoma): > 100 µM
CC(C)n1c(=O)n(C)c2cnc3cc(F)c(-c4ccc(OCCCN5CCCCC5)nc4)cc3c21,22.3 µM,> 87.2 µM,> 100 µM,> 100 µM,> 75.7 µM,> 100 µM,> 100 µM,> 100 µM,36.3 µM,> 100 µM,> 100 µM,> 100 µM,24.8 µM,> 100 µM,5.66 µM,> 40.4 µM,18.6 µM,> 100 µM,> 100 µM,> 100 µM,GI50 (RPMI-8226 leukemia): 6.13 µM; TGI (RPMI-8226 leukemia): 42.1 µM; GI50 (SK-MEL-5 melanoma): > 38.4 µM; TGI (SK-MEL-5 melanoma): > 100 µM; GI50 (UACC-62 melanoma): 31.9 µM; TGI (UACC-62 melanoma): > 100 µM

# Reference: PubChem BioAssay (NCI)
